Measurements as given in patent US9346815B2, “5-chloro-2-difluoromethoxyphenyl pyrazolopyrimidine compounds, compositions and methods of use thereof” (Genentech, Inc., priority 2014, dated 2016).

Experiments:
[1] = system: JAK1-dependent STAT6 phosphorylation downstream of IL-13 stimulation in TF-1 human erythroleukemia cells; test: JAK1 pathway assay in TF-1 cells (IL-13-pSTAT6, MSD); format: cell-based; settings: Homo sapiens, TF-1, TF-1 cells, read-out: IL13-pSTAT6 EC50_TF-1
Method in brief: (§1)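 TF-1 cells starved of GM-CSF overnight, assayed serum-free; BEAS-2B cells in complete growth medium. Lysate pSTAT6 measured by MSD; EC50 derived.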

[2] = biological target: isolated recombinant JAK1 kinase domain (Homo sapiens (Human), UniProt P23458); test: JAK1 enzyme assay (Caliper LabChip, peptide phosphorylation); format: biochemical; settings: isolated recombinant JAK1 kinase domain, 25 μM ATP
[3] = system: JAK1-dependent STAT6 phosphorylation downstream of IL-13 stimulation in BEAS-2B human bronchial epithelial cells; test: JAK1 pathway assay in BEAS-2B cells (IL-13-pSTAT6, MSD); format: cell-based; settings: read-out: IL13-pSTAT6 EC50 (uM)_BEAS-2B
Method in brief: as §1

[4] = biological target: isolated recombinant JAK2 kinase domain (Homo sapiens (Human), UniProt O60674); test: JAK2 enzyme assay (Caliper LabChip, peptide phosphorylation); format: biochemical; settings: 25 μM ATP
[5] = Clearance assay: mouse intravenous (IV) clearance; format: in vivo; settings: female BALB/c mice; for IV Mouse CL, % of liver blood flow: clearance as % of mouse liver blood flow; for clearance: mouse, read-out: IV Mouse CL
Excerpt: In certain instances high systemic clearance of a drug substance may be of benefit. For example, in the treatment of pulmonary diseases it may be beneficial to have high drug concentrations in the lung, with lower concentrations in the bloodstream or peripheral organs. In such cases, it may be advantageous to administer a drug substance with high systemic clearance via the inhaled delivery route. This approach may maximize pharmacologic activity of the drug substance in the lung while minimizing the possibility of on-target toxicity elsewhere in the body. The functional groups appended to the 5-chloro-2-difluoromethoxyphenyl pyrazolopyrimidine scaffold affect systemic clearance.
Female BALB/c mice were obtained from Charles River Labs (Hollister, Calif. USA). Twelve animals were given a single IV dose of 1 mg/kg of compounds via the tail vein. A representative dose solution was prepared as follows: the compound was dissolved in a mixture of 5% dimethylsulfoxide (DMSO), 35% polyethylene glycol (PEG 400), and 60% water (v/v/v), respectively, and administered at a dosing volume of 5 mL/kg. Mice weighed approximately 20-25 g at the start of the study. After intravenous administration of compounds, each animal was bled twice via retro-orbital and cardiac puncture. PK time points were collected at 2 min, 5 min, 15 min, 30 min, 1 hr, 2 hr, 4 hr, and 8 hr post-dose. Plasma samples were stored at approximately −80° C. until thawed for LC-MS/MS analysis. PK data analysis was performed on mean plasma concentration-time data and PK parameters were determined by non compartmental methods using WinNonlin® Enterprise, version 5.2.1 (Pharsight Corporation; Mountain View, Calif.).

[6] = plasma, single IV dose of 1 mg/kg via the tail vein

isolated recombinant JAK1 kinase domain, sequence (P23458 875-1153): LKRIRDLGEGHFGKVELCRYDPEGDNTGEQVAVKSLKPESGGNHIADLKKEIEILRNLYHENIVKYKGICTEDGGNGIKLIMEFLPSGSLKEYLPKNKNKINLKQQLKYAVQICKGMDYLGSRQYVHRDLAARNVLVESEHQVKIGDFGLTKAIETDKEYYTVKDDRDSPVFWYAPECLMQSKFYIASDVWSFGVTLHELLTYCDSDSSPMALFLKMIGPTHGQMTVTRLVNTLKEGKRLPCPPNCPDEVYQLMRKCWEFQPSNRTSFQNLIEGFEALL
isolated recombinant JAK2 kinase domain, sequence (O60674 849-1124): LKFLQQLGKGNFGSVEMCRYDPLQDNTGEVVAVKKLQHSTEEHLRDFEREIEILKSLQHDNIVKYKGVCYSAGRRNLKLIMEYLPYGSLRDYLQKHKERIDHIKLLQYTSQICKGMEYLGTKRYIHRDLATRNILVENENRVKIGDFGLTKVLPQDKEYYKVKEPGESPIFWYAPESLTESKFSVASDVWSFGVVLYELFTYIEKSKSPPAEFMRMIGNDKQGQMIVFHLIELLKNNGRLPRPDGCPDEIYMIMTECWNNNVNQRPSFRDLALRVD

Row | EC50 [1] | Ki [2] | Ki [4] | IV Mouse CL, % of liver blood flow ([5]; single IV dose of 1 mg/kg) | clearance [5, 6] | mouse IV clearance as % of mouse liver blood flow ([5]; single IV dose of 1 mg/kg) | mouse intravenous (IV) clearance value ([5]; single IV dose of 1 mg/kg via the tail vein, plasma) | SMILES | EC50 [3]
1 | 5.2 nM | 0.72 nM | 0.19 nM | >100% | 580 mL/min/kg |  |  | Nc1nn2cccnc2c1C(=O)Nc1cn(C2CCNCC2)nc1-c1cc(Cl)ccc1OC(F)F [Example 2, 2-Amino-pyrazolo[1,5-a]pyrimidine-3-carboxylic acid [3-(5-chloro-2-difluoromethoxy-phenyl)-1-piperidin-4-yl-1H-pyrazol-4-yl]-amide] | 0.0195 µM
2 | 16.7 nM | 0.79 nM | 0.81 nM | >100% | 216 mL/min/kg |  |  | CN1C[C@@H]2CN(C(=O)Cn3cc(NC(=O)c4cnn5cccnc45)c(-c4cc(Cl)ccc4OC(F)F)n3)C[C@@H]2C1 [Example 3, Cis-pyrazolo[1,5-a]pyrimidine-3-carboxylic acid {3-(5-chloro-2-difluoromethoxyphenyl)1-[2-(5-methylhexahydropyrrolo[3,4-c]pyrrol-2-yl)-2-oxoethyl]-1H-pyrazol-4-yl}amide] | 0.0324 µM
3 | 3.7 nM | 0.5 nM | 0.8 nM | 43% | 39 mL/min/kg |  |  | O=C(Nc1cn(CC(=O)N2C[C@H]3CN(CC(F)(F)F)C[C@H]3C2)nc1-c1cc(Cl)ccc1OC(F)F)c1cnn2cccnc12 [Example 59, N-[1-[2-[(3aR,6aS)-2-(2,2,2-trifluoroethyl)-1,3,3a,4,6,6a-hexahydropyrrolo[3,4-c]pyrrol-5-yl]-2-oxo-ethyl]-3-[5-chloro-2-(difluoromethoxy)phenyl]pyrazol-4-yl]pyrazolo[1,5-a]pyrimidine-3-carboxamide] | 
4 | 5.7 nM | 0.34 nM | 0.7 nM | >100% | 139 mL/min/kg |  |  | CN(CCC#N)C1CCN(C(=O)Cn2cc(NC(=O)c3cnn4cccnc34)c(-c3cc(Cl)ccc3OC(F)F)n2)CC1 [Example 63, Pyrazolo[1,5-a]pyrimidine-3-carboxylic acid [3-(5-chloro-2-difluoromethoxy-phenyl)-1-(2-{4-[(2-cyano-ethyl)-methyl-amino]-piperidin-1-yl}-2-oxo-ethyl)-1H-pyrazol-4-yl]-amide] | 0.0122 µM
5 | 14.6 nM | 0.89 nM |  | >100% | 205 mL/min/kg |  |  | CN(C)C1CCN(C(=O)Cn2cc(NC(=O)c3cnn4cccnc34)c(-c3cc(Cl)ccc3OC(F)F)n2)CC1 [Example 67, N-[3-[5-chloro-2-(difluoromethoxy)phenyl]-1-[2-[4-(dimethylamino)-1-piperidyl]-2-oxo-ethyl]pyrazol-4-yl]pyrazolo[1,5-a]pyrimidine-3-carboxamide] | 0.0715 µM
6 | 15.3 nM | 0.86 nM | 1.66 nM | 61% | 55 mL/min/kg |  |  | CN(CCc1ccccc1)C1CCN(C(=O)Cn2cc(NC(=O)c3cnn4cccnc34)c(-c3cc(Cl)ccc3OC(F)F)n2)CC1 [Example 85, N-[3-[5-chloro-2-(difluoromethoxy)phenyl]-1-[2-[4-[methyl(2-phenylethyl)amino]-1-piperidyl]-2-oxo-ethyl]pyrazol-4-yl]pyrazolo[1,5-a]pyrimidine-3-carboxamide] | 0.1 µM
7 | 29.1 nM | 2.72 nM | 2.17 nM | >100% | 326 mL/min/kg |  |  | CN(CC(F)(F)F)C1CCN(c2nc(-c3cc(Cl)ccc3OC(F)F)c(NC(=O)c3cnn4cccnc34)s2)CC1 [Example 198, N-[4-[5-chloro-2-(difluoromethoxy)phenyl]-2-[4-[methyl(2,2,2-trifluoroethyl)amino]-1-piperidyl]thiazol-5-yl]pyrazolo[1,5-a]pyrimidine-3-carboxamide] | 
8 |  | 0.24 nM | 0.63 nM | >100% | 133 mL/min/kg |  |  | O=C(Nc1cn(CC(=O)N2CCC(O)CC2)nc1-c1cc(Cl)ccc1OC(F)F)c1cnn2cccnc12 [Example 278, N-[3-[5-chloro-2-(difluoromethoxy)phenyl]-1-[2-(4-hydroxy-1-piperidyl)-2-oxo-ethyl]pyrazol-4-yl]pyrazolo[1,5-a]pyrimidine-3-carboxamide] | 0.005 µM
9 |  | 0.21 nM | 0.21 nM | 57% | 51 mL/min/kg |  |  | O=C(Nc1cn(CCNCc2ccccc2)nc1-c1cc(Cl)ccc1OC(F)F)c1cnn2cccnc12 [Example 313, N-[1-[2-(benzylamino)ethyl]-3-[5-chloro-2-(difluoromethoxy)phenyl]-1H-pyrazol-4-yl]pyrazolo[1,5-a]pyrimidine-3-carboxamide] | 0.0218 µM
10 |  | 0.36 nM | 1.16 nM | >100% | > 200 mL/min/kg |  |  | CN(C)CCOC(=O)C1CCN(C(=O)Cn2cc(NC(=O)c3cnn4cccnc34)c(-c3cc(Cl)ccc3OC(F)F)n2)CC1 [Example 338, 2-(dimethylamino)ethyl 1-(2-[3-[5-chloro-2-(difluoromethoxy)phenyl]-4-[pyrazolo[1,5-a]pyrimidine-3-amido]-1H-pyrazol-1-yl]acetyl)piperidine-4-carboxylate] | 0.0177 µM
11 |  | 0.4 nM | 1.02 nM | >100% | 143 mL/min/kg |  |  | O=C(Nc1cn(CC(=O)N2CCC(CN3CCOCC3)CC2)nc1-c1cc(Cl)ccc1OC(F)F)c1cnn2cccnc12 [Example 348, N-[3-[5-chloro-2-(difluoromethoxy)phenyl]-1-[2-[4-(morpholin-4-ylmethyl)piperidin-1-yl]-2-oxoethyl]-1H-pyrazol-4-yl]pyrazolo[1,5-a]pyrimidine-3-carboxamide] | 0.012 µM
12 |  | 0.25 nM | 0.51 nM | >100% | 93 mL/min/kg |  |  | CSCCN1CCN(C(=O)Cn2cc(NC(=O)c3cnn4cccnc34)c(-c3cc(Cl)ccc3OC(F)F)n2)CC1 [Example 372, N-[3-[5-chloro-2-(difluoromethoxy)phenyl]-1-(2-[4-[2-(methylsulfanyl)ethyl]piperazin-1-yl]-2-oxoethyl)-1H-pyrazol-4-yl]pyrazolo[1,5-a]pyrimidine-3-carboxamide] | 0.0197 µM
13 |  |  | 0.77 nM | >100% | 141 mL/min/kg |  |  | CCOC(=O)CN1CCN(C(=O)Cn2cc(NC(=O)c3cnn4cccnc34)c(-c3cc(Cl)ccc3OC(F)F)n2)CC1 [Example 397, ethyl 2-[4-(2-[3-[5-chloro-2-(difluoromethoxy)phenyl]-4-[pyrazolo[1,5-a]pyrimidine-3-amido]-1H-pyrazol-1-yl]acetyl)piperazin-1-yl]acetate] | 0.027 µM
14 |  | 0.27 nM | 0.74 nM | 80% | 72 mL/min/kg |  |  | CC(C)(C#N)CNC1CCN(C(=O)Cn2cc(NC(=O)c3cnn4cccnc34)c(-c3cc(Cl)ccc3OC(F)F)n2)CC1 [Example 466, N-(3-(5-chloro-2-(difluoromethoxy)phenyl)-1-(2-(4-(2-cyano-2-methyl-propylamino)piperidin-1-yl)-2-oxoethyl)-1H-pyrazol-4-yl)pyrazolo[1,5-a]pyrimidine-3-carboxamide] | 0.014 µM
15 |  | 0.36 nM | 0.92 nM | >100% | 140 mL/min/kg |  |  | N#CC1(CNC2CCN(C(=O)Cn3cc(NC(=O)c4cnn5cccnc45)c(-c4cc(Cl)ccc4OC(F)F)n3)CC2)CC1 [Example 468, N-(3-(5-chloro-2-(difluoromethoxy)phenyl)-1-(2-(4-(((1-cyanocyclopropyl)methyl)amino)piperidin-1-yl)-2-oxoethyl)-1H-pyrazol-4-yl)pyrazolo[1,5-a]pyrimidine-3-carboxamide] | 0.006 µM
16 |  |  |  |  |  | 6% | 5.3 mL/min/kg | CC(C)(O)Cn1cc(NC(=O)c2cnn3cccnc23)c(-c2cc(Cl)ccc2OC(F)F)n1 [i] | 
